Assay results taken from patent EP0422134B1, “5-HT SELECTIVE AGENTS” (ABBOTT LABORATORIES, priority 1988, dated 1990).
Structures can show the parent of a compound that is named as a salt.

Key:
5-HT1 = experiment: Radioligand binding, tritiated 5-HT, rat frontal cortex homogenate (total 5-HT1); settings: displacement of tritiated 5-HT
Protocol: Male Sprague-Dawley rats (150-200 g) were sacrificed and the brains were rapidly removed and placed on ice. The frontal cortext, including the portion immediately above the striatum and part of the parietal cortex were dissected. Tissues from 6-10 rats were pooled and homogenized in at least 40 volumes of tris-HCI buffer (0.05 M, pH 7.4) using a Brinkman Polytron (setting 5 for 20 seconds). This homogenate was centrifuged (48,000 G for 10 minutes), the pellet resuspended, and the process repeated three more times. Between the second and third washes, the tissue homogenate was incubated for 10 minutes at 37°C. The final pellet was resuspended in 100 volumes of TRIS buffer for use in the binding assay.
Radioligand binding affinity for subtypes of the serotonin receptor was determined by the method of Pedigo, Yamamura, and Nelson, op. cit. Tissue homogenate (0.5 mL) from rat frontal cortex, together with various concentrations of tritiated 5-HT and test compounds were added to glass tubes containing modified tris-HCI buffer to obtain, in each case, a final volume of 2 mL and having the following compositions: 5.7 mM ascorbate, 10 micromolar pargyline, 4mM CaCl2, 50 mM TRIS buffer; pH 7.4 at 37°C.
Each mixture was incubated for 15 minutes at 37°C and then vacuum filtered through Whatman GF/B filters followed by three 5 mL washes with cold TRIS buffer. Radioactivity was extracted overnight in 3 mL of scintillation liquid and measured by liquid scintillation spectrometry (50% efficiency).
Binding parameters for saturation and drug displacement studies were calculated by Scatchard analysis and from Hill plots, respectively.

[1] = test system: spontaneously hypertensive (SH) rat; experiment: Blood pressure in spontaneously hypertensive rats (tail cuff), oral dosing; assay type: in vivo; settings: % change in blood pressure
Protocol: In another study, a group of spontaneously hypertensive male rats were trained to be restrained in a wire mesh cylinder in a warming box, at least two training cycles being conducted before testing. The rats were warmed for about one-hour prior to blood pressure measurement, the warming box being maintained at a constant temperature of 36°C. An occluding cuff attached to a programmed sphygmomanometer was placed near the base of the tail of each rat and the pressure of the cuff was increased automatically from 0 to 250 millimeters of mercury at a rate of 10 mm Hg pressure per second. The total time for each cycle of inflation and deflation of the cuff was 50 seconds and the interval between cycles was one minute A photocell, placed distally to the cuff, recorded the pulses due to the forward motion of blood flow with each heart beat. As the pressure in the cuff increased, the pulse disappeared completely at the point where the cuff pressure equalled and exceeded the arterial blood pressure. The pulse reappeared during deflation at approximately the same pressure. Five interference free signals were recorded for each rat. Rats with a blood pressure of 180 mm Hg or more during the control period were used in the study.
Blood pressure and heart rate readings were recorded on a Model VII Grass polygraph at various intervals after administration of the test compound. […] For the in vivo test data, SHR refers to spontaneously hypertensive rats, dosed in milligrams per kilogram (mpk), with the data being expressed in the Table in +% changes at a particular dosage range.

IC50 (5-HT1) | Structure (SMILES) | In Vivo Data SHR (mpk, p.o. dose) ([1]; 30 mg/kg p.o.) | In Vivo Data SHR (mpk, p.o. dose) ([1]; 10 mg/kg p.o.)
505 nM | COc1cccc2c1C1CCN(CCCCN3C(=O)CC4(CCCC4)CC3=O)CC1C2 (centres unmarked) [Example 44, hydrochloride] | – | –
714 nM | COc1c(Cl)ccc2c1C1CN(CCCCN3C(=O)CC4(CCCC4)CC3=O)CC1C2 (centres unmarked) [Example 8, 2-(4-(3,3-tetramethylene)glutarimidyl)butyl-5-chroro-4-methoxy-1,2,3,3a,8,8a-hexahydroindeno[1,2-c] pyrrole hydrochloride] | -37% at 30 mg/kg | –
1730 nM | COc1cccc2c1C1CN(CCCCN3C(=O)CC(C)(C)CC3=O)CC1C2 (centres unmarked) [Example 23, 2-(4-(3,3-dimethyl)glutarimidyl)butyl-4-methoxy-1,2,3,3a,8,8a-hexahydroindeno-[1,2-c]pyrrole hydrochloride] | -12% at 30 mg/kg | –
283 nM | COc1cccc2c1C1CN(CCCCN3C(=O)C4C5C=CC(C6C=CC65)C4C3=O)CC1C2 (centres unmarked) [Example 54, 4-Methoxy-2-(4-(3a,4,4a,6a,7,7a-hexahydro-4,7-etheno-1H-cyclobut[flisoindol-1,3-dionyl)-butyl)-1,2,3,3a,8,8a-hexahydroindeno-[1,2-c]pyrrole hydrochloride] | – | –
60 nM | COc1cccc2c1[C@H]1CCN(CCCCN3C(=O)CC4(CCCC4)CC3=O)C[C@@H]1C2 (relative stereo) [Example 51, trans-2-(4-(3,3-tetramethylene)glutarimidyl)butyl-5-methoxy-2,3,4,4a,9,9a-hexahydro-1H-indeno [2,1-c] pyridine hydrochloride] | -36% at 30 mg/kg | –
262 nM | Br.O=C(NCCN1CC2Cc3cccc(O)c3C2C1)c1ccc(F)cc1 (centres unmarked) [Example 19, 4-Hydroxy-2-(2-(4-fluorobenzamido)ethyl)-1,2,3,3a,8,8a-hexahydroindeno[1,2-c]pyrrole hydrobromide] | -9% at 30 mg/kg | –
438 nM | COc1cccc2c1C1CN(CCCCN3C(=O)c4ccccc4S3(=O)=O)CC1C2 (centres unmarked) [Example 21, 4-Methoxy-2-(4-(2-(1,2-benzisothiazolin-3-one1,1-dioxide))butyl)1,2,3,3a,8,8a-hexahydroindeno-[1,2-c]pyrrole hydrochloride] | -28% | -16%
457 nM | COc1cccc2c1C1CN(C[C@H]3COc4ccccc4O3)CC1C2 (stereo partly drawn) [Example 31, 2S-(1,4-benzodioxanyl-2-methyl)-4-methoxy-1,2,3,3a,8,8a-hexahydroindeno[1,2-c]pyrrole hydrochloride] | – | –
43 nM | COc1cccc2c1C1CCN(CCNC(=O)c3ccc(F)cc3)CC1C2 (stereo not drawn) [Example 58, trans-2-(2-(4-fluorobenzamido)ethyl)-5-methoxy-2,3,4,4a,9.9a-hexahydro-1H-indeno[2,1-c]pyridine hydrochloride] | – | -18% at 10 mg/kg
3630 nM | COc1cccc2c1C1CN(C/C=C\CN3C(=O)CC4(CCCC4)CC3=O)CC1C2 (stereo not drawn) [Example 29, 2-(4-(3,3-tetramethylene)glutarimidyl)-cis-but-2-enyl-4-methoxy-1,2,3,3a,8,8a-hexahydroindeno [1,2-c] pyrrole hydrochloride] | -19% at 30 mg/kg | –
3320 nM | O=C1CC2(CCCC2)CC(=O)N1CCCN1CC2Cc3cccc(O)c3C2C1 (centres unmarked) [Example 27, 2-(3-(3,3-tetramethylene)glutarimidyl)propyl-4-hydroxy-1,2,3,3a,8,8a-hexahydroindeno[1,2-c]pyrrole hydrobromide] | – | –
1090 nM | O=C1c2ccccc2S(=O)(=O)N1CCCCN1CC2Cc3cccc(O)c3C2C1 (centres unmarked) [Example 22, 4-Hydroxy-2-(4-(2-(1.2-benzisothiazolin-3-one-1,1-dioxide))butyl)-1,2,3,3a,8,8a-hexahydroindeno-[1,2-c]pyrrole hydrochloride] | -16% at 30 mg/kg | –
722 nM | COc1cccc2c1C1CN(CCCCCN3C(=O)CC4(CCCC4)CC3=O)CC1C2 (centres unmarked) [Example 28, 2-(5-(3,3-tetramethylene)glutarimidyl)pentyl-4-methoxy-1,2,3,3a,8,8a-hexahydroindeno[1,2-c]pyrrole hydrochloride] | – | –
26 nM | COc1cccc2c1[C@H]1CCN(CCCCN3C(=O)c4ccccc4S3(=O)=O)C[C@@H]1C2 (relative stereo) [Example 57, trans-2(4-(2-(1,2-benzisothiazolin-3-one-1,1-dioxyde))butyl)-5-methoxy-2,3,4,4a,9,9a-hexahydro-1H-indeno[2,1-c]pyridine hydrochloride] | -17% at 30 mg/kg | –
3300 nM | COc1cccc2c1C1CN(CCCN3C(=O)CC4(CCCC4)CC3=O)CC1C2 (centres unmarked) [Example 26, 2-(3-(3,3-tetramethylene)glutarimidyl)propyl-4-methoxy-1,2,3,3a,8,8a-hexahydroindeno[1,2-c]pyrrole hydrochloride] | -23% at 30 mg/kg | –
533 nM | COc1cccc2c1C1CN(C/C=C/CN3C(=O)CC4(CCCC4)CC3=O)CC1C2 (stereo not drawn) [Example 30, 2-(4-(3,3-tetramethylene)glutarimidyl)-trans-but-2-enyl-4-methoxy-1,2,3,3a,8,8a-hexahydroindeno [1,2-c]pyrrole hydrochloride] | -11% at 30 mg/kg | –
279 nM | COc1cccc2c1[C@H]1CCN(CCCN3C(=O)CC4(CCCC4)CC3=O)C[C@@H]1C2 (relative stereo) [Example 50, trans-2-(3-(3,3-tetramethylene)glutarimidyl)propyl-5-methoxy-2,3,4,4a,9,9a-hexahydro-1 H-indeno [2,1-c]pyridine hydrochloride] | – | –
404 nM | COc1cccc2c1C1CN(CCCCN3C(=O)c4ccccc4C3=O)CC1C2 (centres unmarked) [Example 24, 4-Methoxy-2-(4-(2-phthalimido)butyl)-1,2,3,3a,8,8a-hexahydroindeno[1,2-c]pyrrole hydrochloride] | – | –
218 nM | COc1cccc2c1C1CN(CCCCN3C(=O)CC4(CCCC4)CC3=O)CC1C2 (centres unmarked) [Example 7, 2-(4-(3,3-tetramethylene)glutarimidyl)butyl-4-methoxy-1,2,3,3a,8,8a-hexahydoindeno[1,2-c]pyrrole hydrochloride] | -28% | -14%
1840 nM | O=C1CC2(CCCC2)CC(=O)N1CCCCN1CC2Cc3ccc(Cl)c(O)c3C2C1 (centres unmarked) [Example 52, 2-(4-(3,3-Tetramethylene)glutarimidyl)butyl-5-chloro-4-hydroxy-1,2,3,3a,8,8a-hexahydroindeno[1,2-c]-pyrrole hydrobromide] | -23% at 30 mg/kg | –
22 nM | COc1cccc2c1[C@H]1CCN(CCCN3C(=O)c4ccccc4S3(=O)=O)C[C@@H]1C2 (relative stereo) [Example 56, trans-2(3-(2-(1,2-benzisothiazolin-3-one-1,1-dioxyde))propyl)-5-methoxy-2,3,4,4a,9,9a-hexahydro-1 H-indeno[2,1-c]pyridine hydrochloride] | – | -18% at 10 mg/kg
1840 nM | O=C1CC2(CCCC2)CC(=O)N1CCCCN1CC2Cc3cccc(O)c3C2C1 (centres unmarked) [Example 20, 2-(4-(3,3-tetramethylene)glutarimidyl)butyl-4-hydroxy-1,2,3,3a,8,8a-hexahydroindeno[1,2-c]pyrrole hydrobromide] | – | –
992 nM | COc1cccc2c1C1CN(C[C@@H]3COc4ccccc4O3)CC1C2 (stereo partly drawn) [Example 32, 2R-(1,4-benzodioxanyl-2-methyl)-4-methoxy-1,2,3,3a,8,8a-hexahydroindeno[1,2-c]pyrrole hydrochloride] | – | –
3120 nM | COc1cccc2c1C1CCN(CCCN3C(=O)CC4(CCCC4)CC3=O)CC1C2 (stereo not drawn) [Example 43, cis-2-(3-(3,3-tetramethylene)glutarimidyl)propyl-5-methoxy-2,3,4,4a,9,9a-hexahydro-1H-indeno[2,1-c] pyridine hydrochloride] | -17.5% at 30 mg/kg | –
